Laboratory results reported in patent US20170216315A1 (priority 2016, published 2017).
Marks after values point to notes of the source that are not given here.

How the values were obtained:
[1] = test system: male C57BL/6 mice; test: Hepatitis histological activity index (HAI score); format: in vivo; settings: EK100 1, 5, 10 mg/kg/day vs EtOH group; p<0.05; FIG. 11
Text: To further observe the inflammation of mouse liver, the internationally accepted hepatitis histological activity index (HAI score) was used to categorize the hepatitis activity into the portal zone, lobuli hepatis zone, and periportal zone, which were scored with 0 to 10 points (as shown in Table 8). […] J Insur Med. 33: 110-113 (2001),” which is incorporated herein for reference.

[2] = Feed intake, relative weight of organs and of fat pads; format: in vivo, mice; settings: for Relative weight of abdominal fat pad / Relative weight of epididymal fat pad / Relative weight of heart / Relative weight of kidney / Relative weight of liver / Relative weight of spleen: alcoholic liquid diet, week 4
Method: C-1. The feed intakes of mice were recorded every day (4 mice from each group were randomly picked for recording, and an average of the 4 mice was taken). The changes in the mice body weight were recorded at the last day of every week (i.e., an average of 8 mice from each group), over a four-week period.
C-4. After “C-3” was completed, the mice were sacrificed. The weights of the mice hearts, livers, kidneys, spleens, and abdominal and epididymal fat pads were measured and recorded; the mice livers were washed with sterilized saline, and then the liver appearances were recorded by a camera. The collected organs and feces were stored at −80° C. for the following analysis (recording, sample collection and storage were conducted for all of the 8 mice from each group).
The average values of daily feed intakes of mice of each group recorded in [Preparation Examples] Besides, the weights of mice organ and fat of each group obtained from [Preparation Examples] C-4 were averaged, respectively, and then the average weights (g) were divided by the average body weights of mice in week 4 from the corresponding group to obtain the relative weights of organs and the relative weights of fat.

[3] = test system: male C57BL/6 mice; test: Amounts of TAG and TC in serum; format: in vivo; settings: EK100 1, 5, 10 mg/kg/day vs EtOH group; p<0.05; FIG. 2A
[4] = test system: acetaldehyde dehydrogenase (ALDH); test: Activity of ALDH in liver homogenate; format: in vivo, mice; settings: EK100 1, 5, 10 mg/kg/day vs control group; p<0.05; FIG. 14B
Method: D-3 were analyzed. The operation steps were as follows: (i) 100 μl of liver homogenate and 1 ml of sodium pyrophosphate buffer (pH 8.8, 1 mM NAD^+, 0.2 mM 4-methylpyrazole, 1 mM MgCl2, 2 μM rotenone, 1% Triton X-100) were well mixed; the mixture was left standing in the dark at room temperature for 20 minutes; and then the absorbance (A) of the mixture was measured at 340 nm wavelength; (ii) 100 μl of liver homogenate and 1 ml of sodium pyrophosphate buffer (pH 8.8, 1 mM NAD^+, 0.2 mM 4-methylpyrazole, 1 mM MgCl2, 2 μM rotenone, 1% Triton X-100, 5 mM acetaldehyde) were well mixed; the mixture was left standing in the dark at room temperature for 20 minutes, and then the absorbance (B) of the mixture was measured at 340 nm wavelength; (iii) absorbance (A) and absorbance (B) were substituted into formula 3 below to calculate the activity of ALDH (μmole/min/mg protein).

[5] = test system: alcohol dehydrogenase (ADH); test: Activity of ADH in liver homogenate; format: in vivo, mice; settings: EK100 1, 5, 10 mg/kg/day vs control or EtOH group; p<0.05; FIG. 14A
Method: D-3 were analyzed. The operation steps were as follows: (i) 50 μl of liver homogenate, 50 μl of phosphate-buffered saline (PBS), and 1 ml of 0.1 M glycine-NaOH buffer (pH 10.8, 10 mM NAD^+) were well mixed; the mixture was left standing in the dark at room temperature for 4 minutes; and then the absorbance (A) of the mixture was measured at 340 nm wavelength; (ii) 50 μl of liver homogenate, 50 μl of phosphate-buffered saline (PBS), and 1 ml of 0.1 M glycine-NaOH buffer (pH 10.8, 10 mM NAD^+, 0.016 M ethanol) were well mixed; the mixture was left standing in the dark at room temperature for 4 minutes; and then the absorbance (B) of the mixture was measured at 340 nm wavelength; (iii) absorbance (A) and absorbance (B) were substituted into formula 2 below to calculate the activity of ADH (μmole/min/mg protein).

[6] = test system: male C57BL/6 mice; test: Amounts of TAG and TC in liver; format: in vivo; settings: EK100 1, 5, 10 mg/kg/day vs EtOH group; p<0.05; FIG. 2B
[7] = test system: ADH, ALDH, CYP2E1, CAT; test: Gene expressions of alcohol metabolism-related enzymes in liver (real-time PCR); format: in vivo, mice; settings: EK100 1, 5, 10 mg/kg/day vs EtOH group; p<0.05; FIG. 12
Method: C-4 was put into a 0.8 ml RNAlater containing an RNA stabilizer (Qiagen company, United States), and then the commercial kit (E.Z.N.A™ Tissue RNA kit, purchased from Omega Bio-Tek company, United States) was used to extract the mRNA therein. After that, the mRNA sample obtained therefrom was reverse transcribed to provide cDNA, and then specific primers (as shown in Table 2) were used to conduct real-time polymerase chain reaction (real-time PCR) of the cDNA to observe the expression of each gene in the mouse liver, wherein the operation steps of the real-time polymerase chain reaction were as follows: (i) 2 μl of cDNA (50 ng/μl), 5 μl of SYBR Green (Molecular Probes company, United States, Applied Biosystems/Fast SYBR® Green Master Mix), 2 μl of RNase-free water, 1 μl of forward primer, and 1 μl of reverse primer were well mixed and then centrifuged; (ii) the above sample was put into a real-time polymerase chain reaction system (Applied Biosystems/StepOne Real time PCR system) to detect the expression of each gene, wherein the expression of GAPDH was used as the positive control.
The expressions of alcohol metabolism-related enzymes (i.e., ADH, ALDH, CYP2E1, and CAT) in mouse liver of each group were compared by the analysis method of [Preparation Examples]

[8] = test system: alanine aminotransferase (ALT); test: Activity of ALT in serum; format: in vivo, mice; settings: EK100 5 and 10 mg/kg/day (EK100_5X, EK100_10X) vs EtOH group; p<0.05; FIG. 8
Text: It has been known that both aspartate aminotransferase (AST) and alanine aminotransferase (ALT) are amino acid metabolic enzymes, which are widely present in the heart, liver, skeletal muscle, kidney and brain. When cells in organs are injured, AST and ALT will be released into the blood. Therefore, the activities of AST and ALT can be used as the injury markers of the above organs to detect organ injuries, wherein the higher activities of AST and ALT represent that organ injuries are more serious. For example, there is much more ALT in the liver. A higher activity of ALT in the liver would indicate a more serious injury.
To understand the effects of alcohol consumption and ergostatrien-3β-ol intake on the injury conditions of mice organs, mouse serum samples of each group provided in [Preparation Examples] C-2 (200 μl per group) were placed into automatic dry-biochemistry analyzer (Arkray, Inc., Japan, Spotechem™ EZ, SP-4430) with AST/ALT expert analytic test paper (Arkray, Inc., Japan, Spotechem™ II) to detect the activities of AST and ALT.

[9] = test system: male C57BL/6 mice; test: TEAC value of liver homogenate; settings: for TEAC value: liver homogenate, alcoholic liquid diet, 4 weeks
[10] = EK100 1, 5, 10 mg/kg/day vs EtOH group, p<0.05

## CC(C)[C@@H](C)/C=C/[C@@H](C)[C@H]1CC[C@H]2C3=CCC4C[C@@H](O)CC[C@]4(C)C3=CC[C@]12C (stereo partly drawn) [EK100]
[1]
  HAI score of periportal inflammation (necrosis) compared to EtOH: significantly decreased
  HAI score of portal inflammation compared to EtOH: significantly decreased
[2]; [10]
  Relative weight of epididymal fat pad compared to EtOH: significantly lower
[2]; EK100_1X: 1 mg/kg/day gavage
  Relative weight of abdominal fat pad: 0.21 ± 0.03^c g/100 g of mice body weight
  Relative weight of epididymal fat pad: 1.30 ± 0.11^c g/100 g of mice body weight
  Relative weight of heart: 0.53 ± 0.03^bc g/100 g of mice body weight
  Relative weight of kidney: 1.33 ± 0.04^a g/100 g of mice body weight
  Relative weight of liver: 4.50 ± 0.14^a g/100 g of mice body weight
  Relative weight of spleen: 0.53 ± 0.03^a g/100 g of mice body weight
[2]; EK100_5X: 5 mg/kg/day gavage
  Relative weight of abdominal fat pad: 0.41 ± 0.06^b g/100 g of mice body weight
  Relative weight of epididymal fat pad: 1.42 ± 0.14^c g/100 g of mice body weight
  Relative weight of heart: 0.57 ± 0.04^ab g/100 g of mice body weight
  Relative weight of kidney: 1.28 ± 0.05^a g/100 g of mice body weight
  Relative weight of liver: 4.33 ± 0.20^a g/100 g of mice body weight
  Relative weight of spleen: 0.55 ± 0.04^a g/100 g of mice body weight
[2]; EK100_10X: 10 mg/kg/day gavage
  Relative weight of abdominal fat pad: 0.40 ± 0.04^b g/100 g of mice body weight
  Relative weight of epididymal fat pad: 1.62 ± 0.07^c g/100 g of mice body weight
  Relative weight of heart: 0.51 ± 0.01^bc g/100 g of mice body weight
  Relative weight of kidney: 1.14 ± 0.02^b g/100 g of mice body weight
  Relative weight of liver: 4.48 ± 0.10^a g/100 g of mice body weight
  Relative weight of spleen: 0.55 ± 0.02^a g/100 g of mice body weight
[3]
  Amount of TAG in serum compared to EtOH: significantly decreased
  Amount of TC in serum compared to EtOH: significantly decreased
[4]
  Activity of ALDH in liver compared to control: significantly increased
[5]
  Activity of ADH in liver compared to control or EtOH: significantly increased
[6]
  Amount of TAG in liver compared to EtOH: significantly decreased
  Amount of TC in liver compared to EtOH: significantly decreased
[7]
  Gene expression of ADH in liver compared to EtOH: significantly increased
  Gene expression of ALDH in liver compared to EtOH: significantly increased
  Gene expression of CAT in liver compared to EtOH: significantly increased
  Gene expression of CYP2E1 in liver compared to EtOH: significantly decreased
[8]
  Activity of ALT in serum compared to EtOH: significantly decreased
[9]; [10]
  TEAC value of liver compared to EtOH: significantly increased
[9]; EK100_1X: 1 mg/kg/day gavage
  TEAC value: 69.18 ± 2.77^a nmol/mg protein
[9]; EK100_5X: 5 mg/kg/day gavage
  TEAC value: 75.23 ± 2.61^a nmol/mg protein
[9]; EK100_10X: 10 mg/kg/day gavage
  TEAC value: 70.50 ± 2.25^a nmol/mg protein
